Source: US20030049814A1, “Herbicide resistant plants” (priority 1999, published 2003)
Counter-ions that a name gives are not always drawn.

Experiments:
[1] = system: sensitive w/t form of EPSPS (endogenous); assay: EPSPS assay of plant extracts with or without glyphosate, sensitive enzyme; assay type: biochemical, corn; details: 0.1 mM glyphosate, 0.1 mM 14C-PEP, 0.75 mM shikimate-3-Pi
Description: (§1) Assays are carried out generally according to the radiochemical method of Padgette et al 1987 (Archives of Biochemistry and Biophysics, 258(2) 564-573) with K+ions as the major species of cationic counterion. Assays in a total volume of 50 μl, in 50 mM Hepes(KOH) pH 7.0 at 25° C., contain purified enzyme or plant extract (see below) diluted appropriately in Hepes pH 7.0 containing 10% glycerol, and 5 mM DTT, ^14C PEP either as variable substrate(for kinetic determinations) or fixed at 100 or 250 μM and shikimate 3 Phosphate (K+salt) at 2 or 0.75 mM as indicated. Optionally, for assays of crude plant extracts, assays also contain 5 mM KF and/or 0.1 mM ammonium molybdate. Assays are started with the addition of ^14C phosphoenolpyruvate (cyclohexylammonium+salt) and stopped after 2-10 minutes (2 minutes is preferable) with the addition of 50μl of a solution of 1 part 1M acetic acid and 9 parts ethanol. […] Apparent Km and Vmax values are determined by least squares fit to a hyperbola with simple weighting using the Grafit 3.09b from Erithacus Software Ltd. Km values are generally ascertained using 8-9 concentrations of variable substrate ranging from Km/2-10 Km and triplicate points. […]

resistant form of EPSPS = assay: EPSPS assay of plant extracts with or without glyphosate, resistant enzyme; assay type: biochemical, rice; details: 0.1 mM glyphosate, 0.1 mM 14C-PEP, 0.75 mM shikimate-3-Pi
Description: as §1

[2] = molecular target: T1, mutant form of rice EPSPS (Oryza sativa, UniProt A0A0N9WU17, P177S/T173I); assay: EPSPS enzyme assay (radiochemical) of purified mutant rice EPSPS; assay type: biochemical
T1 sequence (A0A0N9WU17 72-515 T173I/P177S): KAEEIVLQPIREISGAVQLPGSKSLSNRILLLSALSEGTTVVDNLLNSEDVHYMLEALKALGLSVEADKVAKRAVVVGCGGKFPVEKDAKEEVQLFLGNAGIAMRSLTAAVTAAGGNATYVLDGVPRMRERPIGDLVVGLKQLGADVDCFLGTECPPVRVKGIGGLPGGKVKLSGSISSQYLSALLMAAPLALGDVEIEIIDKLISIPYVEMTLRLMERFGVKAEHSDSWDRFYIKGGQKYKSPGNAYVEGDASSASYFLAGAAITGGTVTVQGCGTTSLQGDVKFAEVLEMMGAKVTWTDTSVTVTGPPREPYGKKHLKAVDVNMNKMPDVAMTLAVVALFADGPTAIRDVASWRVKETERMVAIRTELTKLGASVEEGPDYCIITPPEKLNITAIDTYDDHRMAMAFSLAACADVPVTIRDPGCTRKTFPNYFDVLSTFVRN
From the text: The resultant products are gel purified and placed into a tube in eqi-molar concentrations to serve as a template for another round of PCRs with the rice 5′ and 3′ oligos. The resultant products are cloned into pCRBlunt II using Invitrogens Zero Blunt TOPO kit. It is confirmed that the DNA sequence of the insert and its predicted open reading frame correspond to that of the predicted mature chloroplastic rice EPSPS protein (with the exception of the presence of an initiating Met) and also that the desired changes (the specific mutation of T to I and P to S at specific positions in the EPSPS sequence) are encoded . The thus cloned and verified rice epsps sequence is excised using Nde 1 and Xho 1 and the purified fragment cloned into pET24a (Novagen) digested similarly. The recombinant clones are introduced into BL21 (DE3), a codon optimised RP strain of E. coli supplied by Strategene. The EPSPS protein is expressed in this strain following addition of 1 mM IPTG to the fermenter medium (LB supplemented with 100 ug/ml Kanamycin). […]

SMILES	inhibition of sensitive w/t (endogenous) EPSPS [1] [%]	inhibition of resistant (tolerant) EPSPS (resistant form of EPSPS) [%]	inhibition of resistant (tolerant) EPSPS (resistant form of EPSPS; listed as glyphosate) [%]	IC50 [2] [µM]	Ki [2] [µM]
O=C(O)CNCP(=O)(O)O [N-(phosphonomethyl)glycine, N-phosphonomethylglycine]	> 98	< 8.5	~8		
O=C(O)CNCP(=O)(O)O [potassium salt of glyphosate]				~600	~200
